Laboratory results as given in patent publication US10875851B2, “Factor XIIa inhibitors” (Merck Sharp & Dohme Corp., priority 2016, dated 2020).

biological target: human Factor XIIa (Homo sapiens (Human), UniProt P00748); assay: Factor XIIa Assay; format: biochemical; details: purified human Factor XIIa 500 pM; substrate n-Acetyl-Lys-Pro-Arg-AFC 100 μM; pH 7.4; read-out: FXIIa IC50
Summary of the method: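 Purified human FXIIa at 500 pM final with 100 μM n-Acetyl-Lys-Pro-Arg-AFC in 50 mM HEPES, 150 mM NaCl, 5 mM CaCl2, 0.1% PEG 8000, pH 7.4, at room temperature or 37° C. Initial fluorogenic hydrolysis rates measured after enzyme–inhibitor equilibration; IC50 taken where Vi=Vo/2.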

human Factor XIIa, sequence (P00748 373-615): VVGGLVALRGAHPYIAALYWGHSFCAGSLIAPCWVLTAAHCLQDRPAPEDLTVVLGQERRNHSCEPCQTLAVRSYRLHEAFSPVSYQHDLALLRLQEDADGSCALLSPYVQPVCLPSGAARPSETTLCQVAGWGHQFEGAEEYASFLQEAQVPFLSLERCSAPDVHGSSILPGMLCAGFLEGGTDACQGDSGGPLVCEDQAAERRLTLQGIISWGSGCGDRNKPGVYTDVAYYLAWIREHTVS

SMILES | IC50 [nM]
CC(C)N[C@H](CCCCN1CCCCC1)C(=O)N1CCN(C2=N[C@@H](C)[C@H](c3ccccc3)O2)C[C@H]1C(=O)NCc1cc(F)c(CN)c(F)c1 [Example 181, (2S)-N-[4-(aminomethyl)-3,5-difluorobenzyl]-1-[N-(1-methylethyl)-6-piperidin-1-yl-D-norleucyl]-4-[(4S,5S)-4-methyl-5-phenyl-4,5-dihydro-1,3-oxazol-2-yl]piperazine-2-carboxamide] | 44.4
C[C@@H]1N=C(N2CCN(C(=O)[C@@H](CC3CCN(C4CCC(C(N)=O)CC4)CC3)NC3CCC(C(N)=O)CC3)[C@H](C(=O)NCc3cccs3)C2)O[C@H]1c1ccccc1 (stereo partly drawn) [Example 182, (2S)-1-{N-(4-carbamoylcyclohexyl)-3-[1-(4-carbamoylcyclohexyl)piperidin-4-yl]-D-alanyl}-4-[(4S,5S)-4-methyl-5-phenyl-4,5-dihydro-1,3-oxazol-2-yl]-N-(thiophen-2-ylmethyl)piperazine-2-carboxamide] | 34.2
C[C@@H]1N=C(N2CCN(C(=O)[C@@H](CC3CCN(C4CCCCC4)CC3)NC3CCCCC3)[C@H](C(=O)NCc3cccs3)C2)O[C@H]1c1ccccc1 [Example 183, (2S)-[N-cyclohexyl-3-(1-cyclohexylpiperidin-4-yl)-D-alanyl]-4-[(4S,5S)-4-methyl-5-phenyl-4,5-dihydro-1,3-oxazol-2-yl]-N-(thiophen-2-ylmethyl)piperazine-2-carboxamide] | 2.4
